The results in this text go back to patent US7932283B2, “Fungicide N-cyclopropyl-sulfonylamide derivatives” (Bayer Cropscience AG, priority 2006, dated 2011).

The first data set in a line: logP by HPLC on reversed-phase column (C 18), EEC Directive 79/B31 Annex V.A8, methods A and B. The following applies: reversed-phase HPLC column (C 18), HPLC reversed-phase C 18, method A: 43° C., 0.1% aqueous phosphoric acid, acetonitrile, linear gradient 10% to 90% acetonitrile. The data set is classed as physicochemical. How it is done:
Calibration was carried out using unbranched alkan-2-ones (having 3 to 16 carbon atoms) with known logP values (determination of the logP values by the retention times using linear interpolation between two successive alkanones).
The term chromatographic logP denotes a lipophilicity value derived from retention on a column. Lower therefore signals a more hydrophilic compound. In turn, `Cc1occc1C(=O)N(C1CC1)S(=O)(=O)c1cccc(O)c1` [Compound 3] had a chromatographic logP of 3.27. Still for that read-out and setting: for `COc1ccccc1S(=O)(=O)N(C(=O)c1c(C)nn(C)c1F)C1CC1` [Compound 182] the value was 2.06. `Cc1nn(C)cc1C(=O)N(C1CC1)S(=O)(=O)c1ccccc1O` [Compound 197] showed a chromatographic logP of 1.95. As to `Cc1nn(C)c(F)c1C(=O)N(C1CC1)S(=O)(=O)c1ccccc1[N+](=O)[O-]` [Compound 202], the chromatographic logP was found to be 2.25.

The compound `Cc1ncc(C(=O)N(C2CC2)S(=O)(=O)c2ccc(O)c(O)c2)s1` [Compound 63] registered a chromatographic logP of 3.33.

Staying with this data set, now noted: reversed-phase HPLC column (C 18), HPLC reversed-phase C 18, method B: 40° C., 0.1% aqueous formic acid and acetonitrile, linear gradient 10% to 90% acetonitrile.
`O=C(c1ccsc1I)N(C1CC1)S(=O)(=O)c1cccc(O)c1O` [Compound 19] registered a chromatographic logP of 3.8. `Cn1cc(C(=O)N(C2CC2)S(=O)(=O)c2ccc(O)c(O)c2O)c(C(F)(F)F)c1` [Compound 37] gave a chromatographic logP of 3.9. The same measure, in the same setting: for `Cn1cc(C(=O)N(C2CC2)S(=O)(=O)c2ccc(Oc3ccc(Br)cc3)cc2)c(C(F)(F)F)c1` [Compound 39] the value was 4.5; for `CCCOc1nn(C)cc1C(=O)N(C1CC1)S(=O)(=O)c1ccc(Oc2ccc3ccc(=O)oc3c2)cc1Br` [Compound 287], 3.4. Still for that read-out and setting: for `COc1nn(C)c(O)c1C(=O)N(C1CC1)S(=O)(=O)c1ccc(O)c(O)c1O` [Compound 282] the value was 3.8; for `COc1c(C(=O)N(C2CC2)S(=O)(=O)c2ccc(O)c(O)c2O)c(C)nn1C` [Compound 230], 3.2. On the same count and under the same terms, for `Cc1cc(C(=O)N(C2CC2)S(=O)(=O)c2ccc(O)c(O)c2O)nn1C` [Compound 75] the value was 3.3; for `CCc1nn(C)c(F)c1C(=O)N(C1CC1)S(=O)(=O)c1ccc(Oc2ccc(Br)cc2)cc1` [Compound 390], 4.4; for `Cn1nc(C2CC2)c(C(=O)N(C2CC2)S(=O)(=O)c2cccc(O)c2O)c1Cl` [Compound 225], 4.7. `O=C(c1ccsc1I)N(C1CC1)S(=O)(=O)c1ccc(Oc2ccccc2)cc1` [Compound 21] showed a chromatographic logP of 4.3. On the same count and under the same terms, for `CCc1nn(C)c(F)c1C(=O)N(C1CC1)S(=O)(=O)c1c(C)nn(C)c1O` [Compound 382] the value was 2.3; for `CCCOc1nn(C)cc1C(=O)N(C1CC1)S(=O)(=O)c1ccc(Oc2cccc(Br)c2)cc1Br` [Compound 299], 4.6. On the same count and under the same terms, for `CCc1nn(C)c(F)c1C(=O)N(C1CC1)S(=O)(=O)c1cc(C(F)(F)F)ccc1O` [Compound 384] the value was 3.5.

The compound `CC(F)c1nn(C)cc1C(=O)N(C1CC1)S(=O)(=O)c1ccc(O)c(O)c1O` (centres unmarked) [Compound 120] registered a chromatographic logP of 3.4. Still for that read-out and setting: for `Cn1nc(C(F)F)c(C(=O)N(C2CC2)S(=O)(=O)c2ccc(O)cc2O)c1F` [Compound 105] the value was 3.4. Take `CC(C)c1nn(C)c(F)c1C(=O)N(C1CC1)S(=O)(=O)c1ccccc1O` [Compound 95]: the chromatographic logP worked out at 3.1.

Still in this data set, the particulars now being: reversed-phase HPLC column (C 18), LogP method A: HPLC reversed-phase C 18, 43° C., 0.1% aqueous phosphoric acid / acetonitrile, linear gradient 10% to 90% acetonitrile.
The compound `CCc1c(C(=O)N(C2CC2)S(=O)(=O)c2ccc(O)c(O)c2)sc(=O)n1C1CC1` [Compound 630] gave a chromatographic logP of 4.08. The same measure, in the same setting: for `Cc1nn(C)c(O)c1C(=O)N(C1CC1)S(=O)(=O)c1ccc(O)c(O)c1` [Compound 407] the value was 3.63; for `Cc1n[nH]c(C)c1C(=O)N(C1CC1)S(=O)(=O)c1ccc(C(F)(F)F)cc1` [Compound 402], 2.5; for `Cc1cc(C(=O)N(C2CC2)S(=O)(=O)c2ccccc2O)nc(Cl)n1` [Compound 654], 2.93. In the case of `Cc1c(C(=O)N(C2CC2)S(=O)(=O)c2ccc(O)cc2O)sc(=O)n1Cc1ccccc1` [Compound 627], the chromatographic logP was 4.03. Same read-out and setting: for `Cc1nn(C)c(C)c1C(=O)N(C1CC1)S(=O)(=O)c1ccc(C(C)(C)C)cc1` [Compound 414] the value was 3.41. Still for that read-out and setting: for `Cc1c(C(=O)N(C2CC2)S(=O)(=O)c2ccc(O)c(C(F)(F)F)c2)sc(=O)n1C` [Compound 622] the value was 2.01; for `Cc1c(C(=O)N(C2CC2)S(=O)(=O)c2ccc(O)c(O)c2)sc(=O)n1Cc1ccccc1` [Compound 626], 3.01.

With `Cc1c(C(=O)N(C2CC2)S(=O)(=O)c2ccc(O)c(O)c2)sc(=O)n1C` [Compound 623], the chromatographic logP stood at 2.01. Turning to `O=C(c1cccnc1Cl)N(C1CC1)S(=O)(=O)c1cccc(O)c1` [Compound 643], the chromatographic logP was 2.91.

With `Cc1nn(C)c(Oc2cccc(O)c2)c1C(=O)N(C1CC1)S(=O)(=O)c1ccc(O)c(O)c1` [Compound 405], the chromatographic logP is 4.46.

For `Cc1noc(C)c1C(=O)N(C1CC1)S(=O)(=O)c1ccc(C(F)(F)F)cc1` [Compound 588], the chromatographic logP is 3.46.

The same data set, now with this note: reversed-phase HPLC column (C 18), LogP method B: HPLC reversed-phase C 18, 40° C., 0.1% aqueous formic acid / acetonitrile, linear gradient 10% to 90% acetonitrile.
As to `COc1nn(C)cc1C(=O)N(C1CC1)S(=O)(=O)c1ccc(Oc2cccc(OC(F)(F)F)c2)cc1Br` [Compound 476], the chromatographic logP is 4. On the same count and under the same terms, for `COc1nn(C)cc1C(=O)N(C1CC1)S(=O)(=O)c1ccc(Oc2cc(O)cc(O)c2)cc1Br` [Compound 481] the value was 4.3. `COc1nn(C)cc1C(=O)N(C1CC1)S(=O)(=O)c1ccc(Oc2ccccc2)cc1Br` [Compound 464] displayed a chromatographic logP of 3.3.

The compound `Cc1cnn(C)c1C(=O)N(C1CC1)S(=O)(=O)c1cccc(O)c1O` [Compound 658] came in with a chromatographic logP of 3.1. Compound `CCOc1nn(C)cc1C(=O)N(C1CC1)S(=O)(=O)c1ccc(Oc2ccc(Br)cc2)cc1Br` [Compound 541] registered a chromatographic logP of 4.2. Same read-out and setting: for `CCOc1nn(C)cc1C(=O)N(C1CC1)S(=O)(=O)c1ccc(Oc2ccc(OC)c(OC)c2)cc1O` [Compound 527] the value was 3.2. Same read-out and setting: for `Cc1nocc1C(=O)N(C1CC1)S(=O)(=O)c1ccc(O)c(O)c1O` [Compound 600] the value was 3.6. On to `CCc1nn(C)c(F)c1C(=O)N(C1CC1)S(=O)(=O)c1c(O)sc(O)c1O` [Compound 437], for which the chromatographic logP worked out at 3.85. On the same count and under the same terms, for `CCOc1nn(C)cc1C(=O)N(C1CC1)S(=O)(=O)C1C=CC(Oc2ccc(F)c(O)c2)=CC1O` (centres unmarked) [Compound 536] the value was 4. On the same count and under the same terms, for `COc1nn(C)cc1C(=O)N(C1CC1)S(=O)(=O)c1ccc(F)cc1Br` [Compound 459] the value was 2.2; for `CCOc1nn(C)cc1C(=O)N(C1CC1)S(=O)(=O)c1ccc(Oc2ccc(Cl)c(C(F)(F)F)c2)cc1Br` [Compound 553], 4.5.

Take `Cc1oncc1C(=O)N(C1CC1)S(=O)(=O)c1ccc(Oc2ccc(Br)cc2)cc1` [Compound 605]: the chromatographic logP worked out at 3.4. The compound `COc1nn(C)cc1C(=O)N(C1CC1)S(=O)(=O)c1ccc(Oc2ccc(O)cc2Cl)cc1Br` [Compound 477] had a chromatographic logP of 4.1. The same measure, in the same setting: for `O=C(c1cccnc1O)N(C1CC1)S(=O)(=O)c1cccc(O)c1O` [Compound 645] the value was 3.2; for `Cc1cnn(C)c1C(=O)N(C1CC1)S(=O)(=O)c1ccc(Oc2ccccc2)cc1` [Compound 660], 3.6.

The same data set, now with this note: reversed-phase HPLC column (C 18), Method B: 40° C., 0.1% aqueous formic acid and acetonitrile.
In turn, `Cc1nn(C)c(F)c1C(=O)N(C1(c2ccccc2)CC1)S(=O)(=O)c1cccc(O)c1O` [Compound 670] displayed a chromatographic logP of 4.1. Same read-out and setting: for `COC(=O)C1(N(C(=O)c2c(C(F)(F)F)nn(C)c2F)S(=O)(=O)c2ccc(O)c(O)c2O)CC1` [Compound 667] the value was 4.04.
